Data from US8728508B2, “Hydrophilic coating and a method for the preparation thereof” (Coloplast A/S, priority 2002, dated 2014).
In brackets after ≈: the same amount, converted by molar mass. Structures can show the parent of a compound that is named as a salt.

Assays:
[1] = Vigorous finger rubbing under running water of UV cured coated polyurethane catheters (coating stable / lubricious); assay type: physicochemical
Description: The coating was applied to polyurethane catheters by dipping the catheters in the polymer solution at room temperature and withdrawing them at a speed of 21 mm/s. The catheters were dried for 30 minutes at 70° C. and then UV cured for 150 seconds at 40-50° C. The UV cured catheters were immediately rubbed vigorously between the fingers under running water in order to evaluate whether the coating was stable and lubricious. They were then stored in water for at least 72 hours, and vigorous finger rubbing under running water was repeated. The catheters were then scored “stable” and “lubricious” only if the coating was still stable and lubricious at this time.

[2] = Hansen solubility parameter, cited from earlier work; for Delta D: dispersion; for Delta H: hydrogen bonding; for Delta P: polar
[3] = cited from earlier work
[4] = 10% triethyl citrate, 79.0% solvent, 5% NMP, 6% PVP K-90, finger rubbing after at least 72 hours storage in water
[5] = 8.7% plasticiser, 5% PVP K-90, 82% ethanol, 4.35% NMP, polyurethane catheters, finger rubbing under running water after at least 72 hours storage in water

Row | Coating stable? [1, 5] | SMILES | Coating stable? [1, 4] | Delta D [2] | Delta H [2] | Delta P [2] | Solubility in water (g/L) [3] | Solubility in water [3]
1 | – | C1COCO1 [1,3-dioxolane] | stable | – | – | – | – | –
2 | stable | CCOC(=O)CC(CC(=O)OCC)(OC(C)=O)C(=O)OCC [Acetyl triethyl citrate] | – | 16.6 | 8.6 | 3.5 | – | –
3 | – | CS(C)(=O)=O [Dimethyl sulfone] | – | 19 | 12.3 | 19.4 | Miscible | –
4 | – | CCO [Ethanol] | stable | – | – | – | – | –
5 | stable | CC(=O)OCC(CO)OC(C)=O (stereo not shown) [Glycerol diacetate] | – | 16.4 | 14.2 | 8.9 | Miscible | –
6 | stable | CC(=O)OCC(COC(C)=O)OC(C)=O [Glycerol triacetate] | – | 16.5 | 9.1 | 4.5 | – | 71 mg/mL
7 | – | CC1=CC(=O)CC(C)(C)C1 [Isophorone] | – | 16.6 | 7.4 | 8.2 | – | –
8 | – | COC(=O)c1ccccc1O [Methyl salicylate] | – | 16 | 12.3 | 8 | – | –
9 | – | CC(=O)N1CCOCC1 [N-Acetyl morpholine] | – | 18.3 | 7.8 | 5.3 | Miscible | –
10 | – | CC1COC(=O)O1 (stereo not shown) [Propylene carbonate] | – | 20 | 4.1 | 18 | – | 190 mg/mL (≈ 1860 mM)
11 | – | c1ccc2ncccc2c1 [Quinoline] | – | 19.4 | 7.6 | 7 | – | –
12 | stable | CCOC(=O)CC(O)(CC(=O)OCC)C(=O)OCC [Triethyl citrate] | – | – | – | – | – | –
13 | – | CCOP(=O)(OCC)OCC [Triethyl phosphate] | – | 16.7 | 9.2 | 11.4 | – | –
14 | – | CN(C)C=O [dimethyl formamide] | stable | – | – | – | – | –
15 | not stable | OCC(O)CO [glycerol] | – | – | – | – | – | –
